Assay [1] deals with L1210. As to the kind of experiment: Compound was tested for the inhibition of the transport of methionine into L1210 cells at the 10 uM concentration after <20 min. The class given is functional. As to conditions: Mus musculus.
In assay [2] the test system is L1210. The experiment in a line: Compound was tested for the inhibition of the transport of aminoisobutyric acid into L1210 cells at the 10 uM concentration after <20 min. As to conditions: Mus musculus. The format is functional.

Results on two sequences are retold here after ChEMBL document CHEMBL1123175, “Synthesis and biological activity of several amino nucleoside-platinum(II) complexes” (1986).

One may read the inhibition as the drop in the measured response relative to a control, in per cent. Higher therefore signals a strong effect.

With CISPLATIN, the inhibition with L1210 [1] came to 10%; with L1210 [2], 15%.
The like results for TRANSPLATIN were, in that order, less than 5% and less than 5%.
